Laboratory results from ChEMBL document CHEMBL2385069, “Thiourea derivatives incorporating a hippuric acid moiety: synthesis and evaluation of antibacterial and antifungal activities” (2013).
Converted amounts (≈) assume the structure as drawn.

Assays:
Format in all cases: functional
[1] = system: Micrococcus luteus; experiment: Antibacterial activity against Sarcina lutea assessed as diameter of inhibition zone at 1 mg/ml after 24 hrs by agar well diffusion method; settings: read-out: DIZ
[2] = system: Candida albicans; experiment: Antifungal activity against Candida albicans NRRLY-477 assessed as diameter of inhibition zone at 1 mg/ml after 24 hrs by agar well diffusion method; settings: NRRLY-477, 24 h, read-out: DIZ
[3] = system: Saccharomyces cerevisiae; experiment: Antifungal activity against Saccharomyces cerevisiae assessed as diameter of inhibition zone at 1 mg/ml after 24 hrs by agar well diffusion method; settings: read-out: DIZ
[4] = system: Staphylococcus aureus; experiment: Antibacterial activity against Staphylococcus aureus ATCC 29213 assessed as diameter of inhibition zone at 1 mg/ml after 24 hrs by agar well diffusion method; settings: ATCC 29213, 24 h, read-out: DIZ
[5] = system: Priestia megaterium; experiment: Antibacterial activity against Bacillus megaterium ATCC 9885 assessed as diameter of inhibition zone at 1 mg/ml after 24 hrs by agar well diffusion method; settings: ATCC 9885, 24 h, read-out: DIZ
[6] = system: Proteus vulgaris; experiment: Antibacterial activity against Proteus vulgaris assessed as diameter of inhibition zone at 1 mg/ml after 24 hrs by agar well diffusion method; settings: read-out: DIZ
[7] = system: Pseudomonas aeruginosa; experiment: Antibacterial activity against Pseudomonas aeruginosa ATCC 27953 assessed as diameter of inhibition zone at 1 mg/ml after 24 hrs by agar well diffusion method; settings: ATCC 27953, 24 h, read-out: DIZ
[8] = system: Klebsiella pneumoniae; experiment: Antibacterial activity against Klebsiella pneumoniae ATCC 13883 assessed as diameter of inhibition zone at 1 mg/ml after 24 hrs by agar well diffusion method; settings: ATCC 13883, 24 h, read-out: DIZ
[9] = system: Bacillus subtilis; experiment: Antibacterial activity against Bacillus subtilis ATCC 6633 assessed as diameter of inhibition zone at 1 mg/ml after 24 hrs by agar well diffusion method; settings: ATCC 6633, 24 h, read-out: DIZ
[10] = system: Escherichia coli; experiment: Antibacterial activity against Escherichia coli ATCC 25922 assessed as diameter of inhibition zone at 1 mg/ml after 24 hrs by agar well diffusion method; settings: ATCC 25922, 24 h, read-out: DIZ
[11] = system: Priestia megaterium; experiment: Antibacterial activity against Bacillus megaterium ATCC 9885 after 24 hrs by two fold serial dilution technique; settings: ATCC 9885, 24 h
[12] = system: Pseudomonas aeruginosa; experiment: Antibacterial activity against Pseudomonas aeruginosa ATCC 27953 after 24 hrs by two fold serial dilution technique; settings: ATCC 27953, 24 h
[13] = system: Saccharomyces cerevisiae; experiment: Antifungal activity against Saccharomyces cerevisiae after 24 hrs by two fold serial dilution technique
[14] = system: Staphylococcus aureus; experiment: Antibacterial activity against Staphylococcus aureus ATCC 29213 after 24 hrs by two fold serial dilution technique; settings: ATCC 29213, 24 h
[15] = system: Bacillus subtilis; experiment: Antibacterial activity against Bacillus subtilis ATCC 6633 after 24 hrs by two fold serial dilution technique; settings: ATCC 6633, 24 h
[16] = system: Escherichia coli; experiment: Antibacterial activity against Escherichia coli ATCC 25922 after 24 hrs by two fold serial dilution technique; settings: ATCC 25922, 24 h
[17] = system: Micrococcus luteus; experiment: Antibacterial activity against Sarcina lutea after 24 hrs by two fold serial dilution technique
[18] = system: Proteus vulgaris; experiment: Antibacterial activity against Proteus vulgaris after 24 hrs by two fold serial dilution technique
[19] = system: Klebsiella pneumoniae; experiment: Antibacterial activity against Klebsiella pneumoniae ATCC 13883 after 24 hrs by two fold serial dilution technique; settings: ATCC 13883, 24 h
[20] = system: Candida albicans; experiment: Antifungal activity against Candida albicans NRRLY-477 after 24 hrs by two fold serial dilution technique; settings: NRRLY-477, 24 h

| SMILES | zone of inhibition at 1000 µg/mL [1] | zone of inhibition at 1000 µg/mL [2] | zone of inhibition at 1000 µg/mL [3] | zone of inhibition at 1000 µg/mL [4] | zone of inhibition at 1000 µg/mL [5] | zone of inhibition at 1000 µg/mL [6] | zone of inhibition at 1000 µg/mL [7] | zone of inhibition at 1000 µg/mL [8] | zone of inhibition at 1000 µg/mL [9] | zone of inhibition at 1000 µg/mL [10] | MIC [11] | MIC [12] | MIC [13] | MIC [14] | MIC [15] | MIC [16] | MIC [17] | MIC [18] | MIC [19] | MIC [20] |
| --- | --- | --- | --- | --- | --- | --- | --- | --- | --- | --- | --- | --- | --- | --- | --- | --- | --- | --- | --- | --- |
| CCCCCCNC(=S)Nc1ccc(C(=O)NCC(=O)O)cc1 | 24 mm | 0 mm | 9 mm | 0 mm | 23 mm | 0 mm | 0 mm | 12 mm | 9 mm | 11 mm | – | – | – | – | – | – | – | – | – | – |
| O=C(O)CNC(=O)c1ccc(NC(=S)Nc2ccccc2)cc1 | 0 mm | 0 mm | 0 mm | 0 mm | 13 mm | 0 mm | 12 mm | 0 mm | 17 mm | 19 mm | – | – | – | – | – | – | – | – | – | – |
| Cc1ccc(NC(=S)Nc2ccc(C(=O)NCC(=O)O)cc2)cc1 | 25 mm | 18 mm | 0 mm | 0 mm | 19 mm | 20 mm | 0 mm | 0 mm | 0 mm | 9 mm | – | – | – | – | – | – | – | – | – | – |
| O=C(O)CNC(=O)c1ccc(NC(=S)Nc2ccc(F)cc2)cc1 | 20 mm | 9 mm | 13 mm | 20 mm | 15 mm | 20 mm | 22 mm | 20 mm | 0 mm | 22 mm | – | – | – | – | – | – | – | – | – | – |
| O=C(O)CNC(=O)c1ccc(NC(=S)Nc2c3ccccc3nc3ccccc23)cc1 | 0 mm | 11 mm | 0 mm | 20 mm | 18 mm | 20 mm | 15 mm | 23 mm | 12 mm | 15 mm | – | – | – | – | – | – | – | – | – | – |
| O=C(O)CNC(=O)c1ccc(NC(=S)Nc2ccccc2C(=O)Nc2cccc(C(F)(F)F)c2)cc1 | 0 mm | 0 mm | 15 mm | 0 mm | 14 mm | 10 mm | 0 mm | 0 mm | 16 mm | 0 mm | – | – | – | – | – | – | – | – | – | – |
| CCOc1ccc(NC(=O)c2ccccc2NC(=S)Nc2ccc(C(=O)NCC(=O)O)cc2)cc1 | 0 mm | 9 mm | 18 mm | 20 mm | 0 mm | 15 mm | 0 mm | 20 mm | 0 mm | 0 mm | – | – | – | – | – | – | – | – | – | – |
| NS(=O)(=O)c1ccc(NC(=S)Nc2ccc(C(=O)NCC(=O)O)cc2)cc1 | 20 mm | 0 mm | 17 mm | 14 mm | 20 mm | 20 mm | 19 mm | 22 mm | 18 mm | 18 mm | – | – | – | – | – | – | – | – | – | – |
| CC(=O)NS(=O)(=O)c1ccc(NC(=S)Nc2ccc(C(=O)NCC(=O)O)cc2)cc1 | 0 mm | 0 mm | 0 mm | 15 mm | 20 mm | 0 mm | 12 mm | 0 mm | 18 mm | 0 mm | – | – | – | – | – | – | – | – | – | – |
| N=C(N)NS(=O)(=O)c1ccc(NC(=S)Nc2ccc(C(=O)NCC(=O)O)cc2)cc1 | 0 mm | 0 mm | 15 mm | 0 mm | 20 mm | 0 mm | 0 mm | 0 mm | 16 mm | 0 mm | – | – | – | – | – | – | – | – | – | – |
| O=C(O)CNC(=O)c1ccc(NC(=S)Nc2ccc(S(=O)(=O)Nc3nccs3)cc2)cc1 | 0 mm | 0 mm | 0 mm | 0 mm | 14 mm | 0 mm | 30 mm | 0 mm | 15 mm | 0 mm | – | – | – | – | – | – | – | – | – | – |
| O=C(O)CNC(=O)c1ccc(NC(=S)Nc2ccc(S(=O)(=O)Nc3ccccn3)cc2)cc1 | 0 mm | 11 mm | 20 mm | 23 mm | 0 mm | 0 mm | 21 mm | 20 mm | 12 mm | 21 mm | – | – | – | – | – | – | – | – | – | – |
| O=C(O)CNC(=O)c1ccc(NC(=S)Nc2ccc(C(=O)NCC(=O)O)cc2)cc1 | 15 mm | 19 mm | 18 mm | 22 mm | 17 mm | 21 mm | 22 mm | 23 mm | 18 mm | 22 mm | 12.5 µg/mL (≈ 29 µM) | 12.5 µg/mL (≈ 29 µM) | 50 µg/mL (≈ 116 µM) | 50 µg/mL (≈ 116 µM) | 50 µg/mL (≈ 116 µM) | 12.5 µg/mL (≈ 29 µM) | 25 µg/mL (≈ 58.1 µM) | 25 µg/mL (≈ 58.1 µM) | 12.5 µg/mL (≈ 29 µM) | 12.5 µg/mL (≈ 29 µM) |
| O=C(O)CNC(=O)c1ccc(NC(=S)Nc2ccc(NC(=S)Nc3ccc(C(=O)NCC(=O)O)cc3)cc2)cc1 | 10 mm | 26 mm | 26 mm | 20 mm | 24 mm | 18 mm | 22 mm | 16 mm | 31 mm | 24 mm | 12.5 µg/mL (≈ 21.5 µM) | 12.5 µg/mL (≈ 21.5 µM) | 25 µg/mL (≈ 43.1 µM) | 50 µg/mL (≈ 86.1 µM) | 12.5 µg/mL (≈ 21.5 µM) | 25 µg/mL (≈ 43.1 µM) | 50 µg/mL (≈ 86.1 µM) | 25 µg/mL (≈ 43.1 µM) | 12.5 µg/mL (≈ 21.5 µM) | 12.5 µg/mL (≈ 21.5 µM) |
| Cc1c(NC(=S)Nc2ccc(C(=O)NCC(=O)O)cc2)c(=O)n(-c2ccccc2)n1C | 24 mm | 0 mm | 17 mm | 18 mm | 18 mm | 19 mm | 22 mm | 19 mm | 15 mm | 14 mm | – | – | – | – | – | – | – | – | – | – |
| O=C(O)CNC(=O)c1ccc(NC(=S)NNC(=O)c2ccccc2)cc1 | 20 mm | 9 mm | 13 mm | 22 mm | 10 mm | 15 mm | 15 mm | 20 mm | 12 mm | 15 mm | – | – | – | – | – | – | – | – | – | – |
| O=C(O)CNC(=O)c1ccc(NC(=S)NNC(=O)c2ccncc2)cc1 | 24 mm | 12 mm | 0 mm | 0 mm | 23 mm | 0 mm | 12 mm | 0 mm | 0 mm | 0 mm | – | – | – | – | – | – | – | – | – | – |
| CCCCNC(=S)Nc1ccc(C(=O)NCC(=O)O)cc1 | 9 mm | 10 mm | 18 mm | 22 mm | 16 mm | 21 mm | 22 mm | 20 mm | 13 mm | 22 mm | – | – | – | – | – | – | – | – | – | – |
